Common to all, as to assay: DTP human tumour cell line panel, 48 h
Assay [1] concerns HOP-62.
Assay [2] concerns HCT-116.
The test system of assay [3] is SK-OV-3.
In assay [4] the test system is CCRF-CEM.
The test system of assay [5] is 786-0.
In assay [6] the test system is HCC 2998.
Assay [7] concerns COLO 205.
The test system of assay [8] is UO-31.
The test system of assay [9] is UACC-257.
The test system of assay [10] is SW-620.
Assay [11] concerns HL-60.
Assay [12] deals with SNB-75.
In assay [13] the test system is HCT-15.
Assay [14] relates to CAKI-1.
Assay [15] relates to OVCAR-4.
The test system of assay [16] is SN12C.
In assay [17] the test system is SR.

Each structure is given as a SMILES string.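 The compound was tested at five concentrations on cells cultured in 96-well plates, with a 48-hour exposure period. The concentration for 50% growth inhibition is given as GI50.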 Calls of active or inactive are those of the source. No stated cut-off is given here; in the data, active = GI50 up to about 1.1 µM and inactive = higher. A value given as a limit tells only on which side of the number the result lay.

The GI50 is the concentration at which growth is held to half of that of the control. On to `Cc1ccc(S(=O)(=O)NC(=O)NC23CC4CC(CC(F)(C4)C2)C3)cc1`, for which the GI50 in assay [1], in assay [2], in [3], in assay [4], in assay [5] and in assay [6] was > 100 µM (inactive) each time. The GI50 in assay [7] was > 100 µM (inactive); in [8], > 100 µM (inactive); in assay [9], > 100 µM (inactive); in assay [10], > 100 µM (inactive); in assay [11] it was > 100 µM (inactive); in assay [12], 73.6 µM (inactive).

As to `CCCCCCCCCCSC(=O)NC`, the GI50 is 22.6 µM in [13]; > 100 µM (inactive) in assay [3]; 25.9 µM (inactive) in [14]; 36.7 µM (inactive) in assay [15]; 18.9 µM (inactive) in assay [4]; 35.2 µM (inactive) in assay [5]. The GI50 in assay [16] was 25.7 µM (inactive); in assay [6], 47.2 µM (inactive); in [7] it was 34.9 µM (inactive); in [8], 23.4 µM (inactive); in [9], 27.9 µM (inactive); in [10] it was 39.6 µM (inactive). The GI50 in assay [11] is 19 µM (inactive); in [12], 48.8 µM (inactive).

Take `C/C(CN1C(=O)c2ccccc2C1=O)=N\NS(=O)(=O)c1ccc(Br)cc1`: the GI50 in assay [1] is > 100 µM (inactive); in assay [2] it was > 100 µM (inactive); in assay [13] it was > 100 µM; in assay [3], > 100 µM (inactive); in assay [14], > 100 µM (inactive); in assay [15], > 100 µM (inactive). The GI50 in assay [4], in assay [5], in [16], in assay [6], in assay [7] and in assay [8] was > 100 µM (inactive) in each case. In addition, the GI50 in assay [9], in [10], in assay [11] and in assay [12] was > 100 µM (inactive) throughout.

As to `CSc1n[n+]2c(s1)SCCC2`, the GI50 in assay [1] is 95.5 µM (inactive); in [2], > 100 µM (inactive); in assay [14] it was 31.9 µM (inactive); in assay [15], > 100 µM (inactive); in assay [4] it was > 100 µM (inactive); in assay [5] it was > 100 µM (inactive). The GI50 is > 100 µM (inactive) in assay [16]; > 100 µM (inactive) in assay [6]; 20.2 µM (inactive) in assay [7]; 19.8 µM (inactive) in assay [8]; > 100 µM (inactive) in assay [9]; 66.1 µM (inactive) in assay [10]. In addition, the values for the GI50 in assay [17], in assay [11] and in assay [12] were > 100 µM (inactive), > 100 µM (inactive) and 42.8 µM (inactive), respectively.

Consider `O[C@]12c3ccccc3C1CCCC2N1CCOCC1` (stereo not given in full), for which the GI50 in assay [1] is > 100 µM (inactive); in assay [2], > 100 µM (inactive); in [13], > 100 µM; in assay [3], > 100 µM (inactive); in [15], > 100 µM (inactive); in assay [4], > 100 µM (inactive). For the same compound, the GI50 in assay [5], in assay [16], in [7], in assay [8], in assay [9] and in [10] was > 100 µM (inactive) throughout. The GI50 in assay [17] is > 10 µM (inactive); in assay [11], > 100 µM (inactive); in assay [12] it was > 100 µM (inactive).

As to `COc1cc(CC2c3cc(OC)c(OC)cc3CCN2C)ccc1O` (stereo not given), the GI50 in assay [1] is > 100 µM (inactive); in [2] it was > 100 µM (inactive); in assay [13], > 100 µM; in assay [14], > 100 µM (inactive); in [15], > 100 µM (inactive); in assay [4] it was > 100 µM (inactive). The GI50 in assay [5], in assay [16], in [6], in assay [8], in assay [9] and in [10] was > 100 µM (inactive) throughout. Also, the GI50 in assay [12] is > 100 µM (inactive).

The record behind these values is ChEMBL document CHEMBL1201862, “PubChem BioAssay data set” (2004).
